Experimental data from ChEMBL document CHEMBL1201862, “PubChem BioAssay data set” (2004).
Active and inactive are the calls of the source.

How the values were obtained:
[1] = biological target: Paired box protein Pax-8 (Homo sapiens, UniProt Q06710); assay: inhibitors of PAX8-driven TPO luciferase reporter, dose response, RMG-I cells, cherry-pick (AID 687027); format: functional, cell-based;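 further: luciferase reporter driven by Pax8 target thyroperoxidase promoter measured by SteadyGlo luminescence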
[2] = biological target: T1, Heat shock factor protein 1 (Mus musculus, UniProt P38532); assay: inhibition of MG132-induced HSE-luciferase signal, confirmation, cell-based, NIH3T3, luminescence, dose retest (AID 2382); format: functional;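 further: NIH3T3 fibroblasts with HSF1-driven luciferase reporter stressed by proteasome inhibitor MG132; luminescence from HSF1-driven luciferase expression after 8 hours of MG132 stress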
T1 sequence (P38532 whole entry): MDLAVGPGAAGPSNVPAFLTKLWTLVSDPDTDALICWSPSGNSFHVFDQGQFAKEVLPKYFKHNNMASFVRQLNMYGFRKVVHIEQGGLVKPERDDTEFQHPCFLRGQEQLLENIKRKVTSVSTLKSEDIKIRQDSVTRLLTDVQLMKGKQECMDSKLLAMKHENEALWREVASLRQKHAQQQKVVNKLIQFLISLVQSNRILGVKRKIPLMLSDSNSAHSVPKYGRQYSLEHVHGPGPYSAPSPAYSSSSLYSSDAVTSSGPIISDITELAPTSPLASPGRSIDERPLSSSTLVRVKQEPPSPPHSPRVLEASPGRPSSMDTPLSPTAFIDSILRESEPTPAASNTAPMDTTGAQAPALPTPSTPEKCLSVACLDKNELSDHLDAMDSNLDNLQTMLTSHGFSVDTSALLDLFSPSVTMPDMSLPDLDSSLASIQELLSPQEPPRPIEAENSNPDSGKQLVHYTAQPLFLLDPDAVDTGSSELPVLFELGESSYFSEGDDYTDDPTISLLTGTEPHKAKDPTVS

[3] = biological target: E3 ubiquitin-protein ligase Mdm2 (Homo sapiens, UniProt Q00987); assay: enhancers of MDM2-luciferase reporter signal, concentration-effect titration, project on inhibitors of MDM2 ubiquitin ligase, cellular assay, luminescent readout, 384-well plate format (AID 1394); format: functional;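 further: MDM2 E3 inhibitors raise luminescence so EC50 is for signal enhancement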
[4] = system: Vero; assay: cells; format: functional; conditions: Chlorocebus sabaeus
[5] = biological target: T2, Tyrosine-protein phosphatase non-receptor type 7 (Homo sapiens, UniProt P35236); assay: inhibitors of human HePTP phosphatase, […], biochemical, absorbance, leukemia target (AID 521); format: functional
T2 sequence (P35236 whole entry): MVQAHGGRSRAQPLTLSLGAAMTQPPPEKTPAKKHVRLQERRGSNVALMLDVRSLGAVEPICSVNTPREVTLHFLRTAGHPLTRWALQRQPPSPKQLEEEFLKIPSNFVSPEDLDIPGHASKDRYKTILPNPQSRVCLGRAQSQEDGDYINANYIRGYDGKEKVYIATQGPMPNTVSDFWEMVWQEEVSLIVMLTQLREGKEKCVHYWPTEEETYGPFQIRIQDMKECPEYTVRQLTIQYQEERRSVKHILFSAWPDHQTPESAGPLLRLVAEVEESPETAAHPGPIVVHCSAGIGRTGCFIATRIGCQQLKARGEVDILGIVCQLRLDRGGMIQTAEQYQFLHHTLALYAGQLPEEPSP

Paired box protein Pax-8, sequence (Q06710 whole entry): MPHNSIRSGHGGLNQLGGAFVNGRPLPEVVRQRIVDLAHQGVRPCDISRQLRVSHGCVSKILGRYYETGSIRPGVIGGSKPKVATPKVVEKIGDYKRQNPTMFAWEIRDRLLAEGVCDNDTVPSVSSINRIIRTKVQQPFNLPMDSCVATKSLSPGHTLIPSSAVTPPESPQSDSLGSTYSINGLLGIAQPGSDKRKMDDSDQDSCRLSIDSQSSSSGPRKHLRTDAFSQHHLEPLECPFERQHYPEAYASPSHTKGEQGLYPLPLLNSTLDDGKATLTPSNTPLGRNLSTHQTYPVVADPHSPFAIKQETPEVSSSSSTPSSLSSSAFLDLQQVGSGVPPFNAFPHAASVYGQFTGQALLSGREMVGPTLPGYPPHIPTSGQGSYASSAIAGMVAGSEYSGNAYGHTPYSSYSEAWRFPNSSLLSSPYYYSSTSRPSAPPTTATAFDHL
E3 ubiquitin-protein ligase Mdm2, sequence (Q00987 whole entry): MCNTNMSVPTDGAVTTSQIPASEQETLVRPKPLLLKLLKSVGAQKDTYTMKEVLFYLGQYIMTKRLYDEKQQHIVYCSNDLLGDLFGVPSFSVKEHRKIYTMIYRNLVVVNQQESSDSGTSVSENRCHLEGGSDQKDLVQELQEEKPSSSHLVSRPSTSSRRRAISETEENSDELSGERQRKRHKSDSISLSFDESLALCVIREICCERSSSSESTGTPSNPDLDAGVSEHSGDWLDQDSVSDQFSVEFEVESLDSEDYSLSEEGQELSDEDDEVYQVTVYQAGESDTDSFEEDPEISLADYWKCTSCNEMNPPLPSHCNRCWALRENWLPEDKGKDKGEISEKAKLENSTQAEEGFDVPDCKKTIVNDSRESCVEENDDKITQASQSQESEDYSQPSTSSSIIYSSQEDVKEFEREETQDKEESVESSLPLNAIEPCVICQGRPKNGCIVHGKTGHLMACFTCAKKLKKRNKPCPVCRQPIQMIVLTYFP

Compound | AC50 [1] | EC50 [2] | EC50 [3] | CC50 [4] | IC50 [5]
COc1cc(/C=C2\COC/C(=C\c3cc(OC)c(OC)c(OC)c3)C2=O)cc(OC)c1OC | 1.56 µM (active) | > 195 µM (not active) | 182 µM (active) | 2.07 µM (active) | 
O=C(NCc1cccc(C(F)(F)F)c1)C1CCCN(c2ncccn2)C1 (stereo not given) |  |  |  |  | > 100 µM (not active)
